Laboratory results reported in patent US20240316073A1, “CANNABIDIOLIC ACID ESTERS FOR TREATING PRADER-WILLI SYNDROME” (EPM (IP), Inc., priority 2021, published 2024).
“Also recorded” adds a separate entry of the source.

Tests used:
[1] = cited from earlier work
WT mice = experiment: Wild-type littermate controls with HFD diet-induced obesity, CBDA-ME treatment; assay type: in vivo
Text: (§1) The experimental protocol used was approved by the Institutional Animal Care and Use Committee of the Hebrew University, Israel, which is an AAALAC International accredited institute. Male 6-week-old Magel2^null mice and their wild-type littermate controls were maintained under a 12-h light/dark cycle and fed ad libitum. To generate diet-induced obesity, the mice were fed either a high-fat diet (HFD) (60% of calories from fat, 20% from protein, and 20% from carbohydrates; Research Diet, D12492) or a standard laboratory diet (STD, 14% fat, 24% protein, 62% carbohydrates; NIH-31 rodent diet) for 14-16 weeks. Then, HFD-fed obese mice received vehicle (1% Tween80, 4% DMSO, 95% Saline) or CBDA-ME (20 or 40 mg/kg) daily for 28 days by intraperitoneal (ip) injections. Age-matched control mice on STD received vehicle daily.
(§2) Body weight was monitored daily. Total body fat and lean masses were determined by EchoMRI-100H™ (Echo Medical Systems LLC, Houston, TX, USA). At weeks 20-22, the mice were euthanized by a cervical dislocation under deep anesthesia. The brain, kidneys, liver, fat pads, pancreas and muscles were removed, and the liver and kidney were also weighed. The samples were either snap-frozen or fixed in buffered 4% formalin. Trunk blood was collected for determining the biochemical parameters.
(§3) Multi-parameter metabolic assessment—Metabolic profile of the mice was assessed by using the Promethion High-Definition Behavioral Phenotyping System (Sable Instruments, Inc., Las Vegas, NV, USA). Data acquisition and instrument control were performed using MetaScreen software version 2.2.18.0, and the obtained raw data were processed using ExpeData version 1.8.4 using an analysis script detailing all aspects of data transformation. Mice with free access to food and water (which were continuously measured) were subjected to a standard 12 h light/12 h dark cycle, which consisted of a 24 h acclimation period followed by 24 h of sampling. Respiratory gases were measured by using the GA-3 gas analyzer (Sable Systems, Inc., Las Vegas, NV, USA) using a pull-mode, negative-pressure system. Air flow was measured and controlled by FR-8 (Sable Systems, Inc., Las Vegas, NV, USA), with a set flow rate of 2000 mL/min. Water vapor was continuously measured and its dilution effect on O2 and CO2 was mathematically compensated. Effective body mass was calculated by ANCOVA. Fat oxidation (FO) and carbohydrate oxidation (CHO) were calculated as FO=1.69×VO2−1.69×VCO2 and CHO=4.57×VCO2−3.23×VO2 and expressed as g/d/kg^eff.Mass. […]
Glucose tolerance test (ipGTT) and insulin tolerance test (ipITT)-Mice that fasted overnight were injected with glucose (1.5 g/kg, ip), followed by a tail blood collection at 0, 15, 30, 45, 60, 90, and 120 minutes. Blood glucose levels were determined using the Contour glucometer (Bayer, Pittsburgh, PA). The following day, mice underwent fasting for 6 h before receiving insulin (0.75 U/kg, ip; Eli Lilly), and blood glucose levels were determined at the same intervals as above. […]
(§4) Statistical Methods—Results in multiple groups and time-dependent variables were compared by ANOVA followed by Tukey post-hoc test. Significance was set at P<0.05 using the following signs: *P<0.05 relative to STD-Veh; #P<0.05 relative to HFD-Veh; ^P<0.05 relative to HFD-20 mg/kg of CBDA-ME.
(§5) The metabolic profile of CBDA-ME was examined in mice with diet-and genetic-induced obesity (DIO, GIO). Male Magel2^null mice and their wild-type littermate controls fed a high-fat diet (HFD) for 14-16 weeks became obese and then started treatment with daily ip injections of vehicle, or CBDA-ME (20 mg/kg/d or 40 mg/kg/d) for 28 days. Age-and sex-matched mice on STD served as controls.

rats [2] = settings: compared with CBDA, 5-HT1A receptor-dependent; cited from earlier work
Magel2^null mice [3] = experiment: PWS preventive model: Magel2-null mice on standard diet treated for 18 weeks; assay type: in vivo; settings: STD diet, 20 mg/kg/day IP
Procedure: The aim of the second study was to evaluate whether EPM301 treatment has an impact on body weight gain and adiposity in a mouse model of PWS.
Male 6-week-old Magel2^null mice and their wild-type littermate controls were maintained under a 12-h light/dark cycle and fed ad libitum a standard laboratory diet (STD, 14% fat, 24% protein, 62% carbohydrates; NIH-31 rodent diet).
Magel2^null mice were either treated with EPM301 20 mg/kg/day or with vehicle (1% Tween80, 4% DMSO, 95% Saline). WT siblings were treated with vehicle. All treatments were given for 18 weeks by intraperitoneal (IP) injections.

DIO mice = experiment: Serum biochemistry and hepatic lipid content in HFD-fed obese mice, genotype not distinguished (WT or PWS model); assay type: in vivo
Text: as §1
Blood biochemistry—Serum levels of cholesterol, triglycerides (TG), high-density lipoprotein (HDL), low-density lipoprotein (LDL), glucose, alanine aminotransferase (ALT), aspartate aminotransferase (AST), and alkaline phosphatase (ALP) were determined using the Cobas C-111 chemistry analyzer (Roche, Switzerland). Fasting blood glucose was measured using the Contour glucometer.
Hepatic lipid content—Liver tissues were extracted and their triglyceride and cholesterol contents were determined using the Cobas C-111 chemistry analyzer (Roche, Switzerland) or the EnzyChrom™ Triglyceride assay kit (BioAssay Systems, Hayward CA, USA).
Histopathology—First, 5 μm paraffin-embedded liver sections from 5 animals per group were stained with hematoxylin-eosin staining. Liver images were captured with a Zeiss AxioCam ICc5 color camera (Carl Zeiss AG, Jena, Germany) mounted on a Zeiss Axio Scope.A1 light microscope (Carl Zeiss AG, Jena, Germany) and taken from 10 random 40× fields of each animal.
as §4

rats [4] = settings: compared with CBDA, 5-HT1A receptor-dependent; cited from earlier work; remark: listed apart in the source
Magel2^null mice [5] = experiment: Magel2-null mouse model of Prader-Willi Syndrome, HFD-induced obesity, CBDA-ME treatment; assay type: in vivo
Text: A Magel2-null mice model of Prader-Willi Syndrome was used to examine the effects of CBDA-ME treatment.
as §1, §2, §3, §4, §5

rat models = settings: oral ingestion, 1 mg/kg, two rat models; cited from earlier work
[6] = HFD-fed obese, 20 or 40 mg/kg/d ip, 28 days
[7] = 20 or 40 mg/kg ip, 28 days, more prominent at the higher dose

In the case of `C=C(C)[C@@H]1CCC(C)=C[C@H]1c1c(O)cc(CCCCC)c(C(=O)O)c1O` [CBDA, cannabidiolic acid], the “stability (decarboxylation into CBD enhanced by heat)” value [1] is listed as “relative instability”.
With `C=C(C)C1CCC(C)=C[C@H]1c1c(O)cc(CCCCC)c(C(=O)OC)c1O` (some centres unmarked) [CBDA-ME, cannabidiolic acid methyl ester] the “food intake and hyperphagia” value (WT mice; HFD) was “not observed”, the reduced ambulatory activity (WT mice; HFD) was “restored” and the increased adiposity (WT mice; [6]) was “only observed in the higher dose of 40 mg/kg”. The “overweight (body weight)” value (WT mice; [6]) was “only observed in the higher dose of 40 mg/kg; also recorded: only the higher dose was found effective”, the “insulin sensitivity (ipITT)” value (WT mice; HFD, 40 mg/kg) was “slightly improved” and the “obesity-induced glucose intolerance (ipGTT)” value (WT mice; HFD, 40 mg/kg) was “this effect was observed”. For the same molecule, the “lean body mass percentage” value (WT mice; HFD, 40 mg/kg ip, 28 days) was “significant increase”, the “fasting blood glucose levels” value (WT mice; HFD, chronic treatment) was “only in Magel2^null mice” and the carbohydrate oxidation (WT mice; HFD, indirect calorimetry) was “upregulated”. For the same molecule, the “utilization of fat (fat oxidation)” value (WT mice; HFD, indirect calorimetry) was “downregulated”, the parameters measured overall (WT mice; WT DIO mice, 40 mg/kg) was “improvements in almost all parameters measured” and the “suppressing signs of stress-induced anxiety” value (rats [2]) was “greater potency than CBDA”. The “change in the body weight versus WT controls and vehicle-treated Magel2^null mice” value (Magel2^null mice [3]) was “significantly lower”, the “fat mass versus WT control mice” value (Magel2^null mice [3]) was “similar” and the “lean mass versus WT control mice” value (Magel2^null mice [3]) was “similar”. For the same molecule, the “fat mass versus vehicle-treated Magel2^null mice” value (Magel2^null mice [3]; listed as EPM301, 20 mg/kg/day) was “lower fat mass; also recorded: prevented”, the “lean mass versus vehicle-treated Magel2^null mice” value (Magel2^null mice [3]; listed as EPM301, 20 mg/kg/day) was “significantly higher; also recorded: increased lean mass” and the “weight gain versus vehicle-treated Magel2^null mice” value (Magel2^null mice [3]; listed as EPM301, 20 mg/kg/day) was “lower; also recorded: prevented weight gain”. For the same molecule, the “obesity related hepatocellular injury: serum ALT” value (DIO mice; 40 mg/kg) was “reduction”, the “obesity related hepatocellular injury: serum AST” value (DIO mice; 40 mg/kg) was “reduction” and the “serum HDL” value (DIO mice; 20 or 40 mg/kg ip, 28 days) was “no effect”. The “HFD-induced hypercholesterolemia (serum cholesterol)” value (DIO mice; [7]) was “reduced”, the “ratio between HDL-to-LDL” value (DIO mice; [7]) was “increased” and the “serum LDL” value (DIO mice; [7]) was “reduced”. The ALP levels (DIO mice; HFD) was “No major changes”, the “HFD-induced hepatic steatosis (hepatic triglyceride and cholesterol levels, fat vacuoles in the liver)” value (DIO mice; HFD) was “attenuated” and the “suppressing signs of acute and anticipatory nausea” value (rats [4]) was “greater potency than CBDA”. For the same molecule, the “food intake and hyperphagia” value (Magel2^null mice [5]; HFD) was “inhibit; also recorded: significantly reduced”, the reduced ambulatory activity (Magel2^null mice [5]; HFD) was “restored” and the increased adiposity (Magel2^null mice [5]; [6]) was “reduced by CBDA-ME in both doses”. The “overweight (body weight)” value (Magel2^null mice [5]; [6]) was “reduced by CBDA-ME in both doses; also recorded: significantly reduced; also recorded: effectively reduced”, the “insulin sensitivity (ipITT)” value (Magel2^null mice [5]; HFD, 40 mg/kg) was “slightly improved” and the “obesity-induced glucose intolerance (ipGTT)” value (Magel2^null mice [5]; HFD, 20 or 40 mg/kg) was “found effective in Magel2^null mice in both doses tested”. The “fasting blood glucose levels” value (Magel2^null mice [5]; HFD, chronic treatment) was “reduced”, the carbohydrate oxidation (Magel2^null mice [5]; HFD, indirect calorimetry) was “downregulating” and the fat oxidation (Magel2^null mice [5]; HFD, indirect calorimetry) was “further upregulating”. For the same molecule, the anti-depressant effect (rat models) was “potent anti-depressant effect”.
